Measurements: ChEMBL document CHEMBL3508140 (2016)

Legend:
[1] = Increase in serum triglycerides level following reference intravenous epirubicin at 1 mg.Kg-1 per week in rat; type: toxicity, organism-based, SD; details: in vivo
[2] = Increase in serum phospholipid level following reference intravenous epirubicin at 1 mg.Kg-1 per week in rat; type: toxicity, organism-based, SD; details: in vivo
[3] = Elimination of epirubicin following epirubicin at 60 mg.m-2 dose in cancer patients; type: ADME, organism-based, Plasma; details: human, in vivo, iv
[4] = Half-life of terminal elimination phase of epirubicin following intravenous epirubicin at 60-90 mg.m-2 dose in cancer patients; type: ADME, organism-based; details: human, plasma
[5] = Volume of distribution as steady state of epirubicin following intravenous epirubicin at 30-90 mg.m-2 dose in cancer patients; type: ADME, organism-based, Plasma; details: human, in vivo
[6] = Half-life of terminal elimination phase of epirubicin following intravenous epirubicin at 60 mg.m-2 dose in cancer patients; type: ADME, organism-based; details: human, plasma
[7] = Plasma clearance of epirubicin following intravenous epirubicin at 60 mg.m-2 dose in cancer patients; type: ADME, organism-based; details: human, in vivo
[8] = Intermediate phase half-life of epirubicin following intravenous epirubicin at 75 mg.m-2 dose in cancer patients; type: ADME, organism-based, Plasma; details: human, in vivo
[9] = Plasma clearance of epirubicin following intravenous epirubicin at 75 mg.m-2 dose in cancer patients; type: ADME, organism-based; details: human, in vivo
[10] = Volume of distribution as steady state of epirubicin following intravenous epirubicin at 70 mg.m-2 dose in cancer patients; type: ADME, organism-based, Plasma; details: human, in vivo
[11] = Intermediate phase half-life of epirubicin following intravenous epirubicin at 40-60 mg.m-2 dose in cancer patients; type: ADME, organism-based, Plasma; details: human, in vivo
[12] = Half-life of terminal elimination phase of epirubicin following intravenous epirubicin at 40-60 mg.m-2 dose in cancer patients; type: ADME, organism-based; details: human, plasma
[13] = Terminal elimination of metabolite of epirubicin following intravenous epirubicin at 40-60 mg.m-2 dose in cancer patients; type: ADME, organism-based, Plasma; details: human, in vivo
[14] = Half-life of terminal elimination phase of epirubicin following intravenous epirubicin at 50 mg.m-2 dose in cancer patients; type: ADME, organism-based; details: human, plasma
[15] = Plasma clearance of epirubicin following intravenous epirubicin at 50 mg.m-2 dose in cancer patients; type: ADME, organism-based; details: human, in vivo
[16] = Terminal elimination of metabolite of epirubicin following intravenous epirubicin at 50 mg.m-2 dose in cancer patients; type: ADME, organism-based, Plasma; details: human, in vivo
[17] = Initial phase half-life of epirubicin following intravenous epirubicin at 90-150 mg.m-2 dose in cancer patients; type: ADME, organism-based, Plasma; details: human, in vivo
[18] = Initial phase half-life of epirubicin following intravenous epirubicin at 25-35 mg.m-2 dose in cancer patients; type: ADME, organism-based, Plasma; details: human, in vivo
[19] = Volume of distribution as steady state of epirubicin following intravenous epirubicin at 25-35 mg.m-2 dose in cancer patients; type: ADME, organism-based, Plasma; details: human, in vivo
[20] = Half-life of terminal elimination phase of epirubicin following intravenous epirubicin at 75-90 mg.m-2 dose in cancer patients; type: ADME, organism-based; details: human, plasma
[21] = Plasma clearance of epirubicin following intravenous epirubicin at 75-90 mg.m-2 dose in cancer patients; type: ADME, organism-based; details: human, in vivo
[22] = AUC values (0-48 h) of epirubicin in plasma following single intravenous epirubicin at 10 mg.Kg-1 dose in female mouse bearing colon tumor; type: ADME, organism-based, BALB/c; details: in vivo
[23] = Volume of distribution of epirubicin following intravenous epirubicin at 3 mg.Kg-1 dose in rabbit; type: ADME, organism-based, Oryctolagus cuniculus; details: both, New Zealand White, plasma
[24] = Terminal half-life of epirubicinol following intravenous epirubicin at 1 mg.Kg-1 dose in rabbit; type: ADME, organism-based, Oryctolagus cuniculus, New Zealand White, Plasma; details: in vivo
[25] = AUC of epirubicin following intrahepatic epirubicin emulsion at 1 mg.Kg-1 dose in rabbit; type: ADME, organism-based, Oryctolagus cuniculus; details: both, New Zealand White, blood
[26] = Mean AUC (8-48 h) of epirubicin following intravenous epirubicin at 1 mg.Kg-1 dose administered approximately 25 minute prior to epirubicin once weekly for four weeks in dog; type: ADME, organism-based, Canis lupus familiaris; details: Beagle, plasma

With `COc1cccc2c1C(=O)c1c(O)c3c(c(O)c1C2=O)C[C@@](O)(C(=O)CO)C[C@@H]3O[C@H]1C[C@H](N)[C@@H](O)[C@H](C)O1.Cl` [EPIRUBICIN HYDROCHLORIDE] the TRIG_CHANGE [1] was “OUTCOME = Increased”, the PHOSLPD_CHANGE [2] was “OUTCOME = Increased” and the Elimination [3] was “OUTCOME = Observed”. It also gave a half-life [4] of 40 h, a Vss [5] of 1858 L.m-2 and a half-life [6] of 31.4 h. For the same compound, the CLp [7] was 43.1 L.h-1.m-2, the t1/2 [8] was 1.7 h and the CLp [9] was 29 L.h-1.m-2. The Vss [10] was 2332 L.m-2, the t1/2 [11] was 0.49 h and the half-life [12] was 15.3 h. The t1/2 [13] was 31.5 h, the half-life [14] was 18.3 h and the CLp [15] was 37 L.h-1.m-2. For the same compound, the t1/2 [16] was 21.1 h, the t1/2 [17] was 0.167 h and the t1/2 [18] was 2.53 min. It also gave a Vss [19] of 925 L.m-2, a half-life [20] of 38 h and a CLp [21] of 94.9 L.h-1.m-2. The AUC [22] was 179 nmol·min/mL, the Vd [23] was 587 L/kg and the t1/2 [24] was 13.97 h. The AUC [25] was 36.4 ng·h/mL and the AUC [26] was 233 ng·h/mL.
